Assay results reported in ChEMBL document CHEMBL5257034, “Hybrid molecules: The privileged scaffolds for various pharmaceuticals” (Eur J Med Chem, 2016).
pIC50: −log10 of the molar value. In brackets after ≈: the same amount, converted by molar mass.

How the values were obtained:
Aspergillus niger [1] = assay: Antifungal activity against Aspergillus niger assessed as zone of inhibition; type: functional
Candida albicans [2] = assay: Antifungal activity against Candida albicans assessed as zone of inhibition; type: functional
[3] = tested on: Mycobacterium tuberculosis; assay: Antibacterial activity against Mycobacterium tuberculosis H37Rv; type: functional
[4] = tested on: Mycobacterium tuberculosis; assay: Antibacterial activity against Mycobacterium tuberculosis H37Rv by alamar blue method; type: functional
Candida albicans [5] = assay: Antifungal activity against Candida albicans; type: functional, organism-based
Candida albicans [6] = assay: Antifungal activity against Candida albicans ATCC 76615 incubated for 24 hrs by microbroth dilution method; type: functional
Plasmodium falciparum [7] = assay: Antiplasmodial activity against Plasmodium falciparum W2 infected in red blood cells (unknown origin) incubated for 72 hrs by LDH assay; type: functional, organism-based, Red blood cell; details: W2, Erythrocyte
[8] = tested on: Mycobacterium tuberculosis; assay: Antibacterial activity against Mycobacterium tuberculosis H37Rv assessed as reduction in relative light unit at 2 microg/ml incubated for 72 hrs by luciferase reporter phage assay relative to control; type: functional; set-up: scale not given: the % may be the effect or the level left; details: dose 2 µg/ml
Mus musculus = assay: Antiinflammatory activity against ear oedema mouse model assessed as inhibition of xylene induced edema; type: functional
MCF7 = assay: Cytotoxicity against human MCF7 cells measured 24 hrs by MTT assay; type: functional, cell-based; details: MCF7, 24 h
Pichia kudriavzevii = assay: Antifungal activity against Candida krusei ATCC 6258; type: functional
Candida albicans [9] = assay: Antifungal activity against Candida albicans ATCC 2091; type: functional
Aspergillus niger [10] = assay: Antifungal activity against Aspergillus niger ATCC 9029; type: functional
[11] = tested on: Mycobacterium tuberculosis; assay: Antibacterial activity against Mycobacterium tuberculosis H37Rv assessed as reduction in relative light unit at 5.2 microg/ml incubated for 72 hrs by luciferase reporter phage assay relative to control; type: functional; set-up: scale not given: the % may be the effect or the level left; details: dose 5.2 µg/ml
Plasmodium falciparum [12] = assay: Antimalarial activity against chloroquine-sensitive Plasmodium falciparum 3D7; type: functional
Pichia norvegensis = assay: Antifungal activity against Candida mycoderma incubated for 24 hrs; type: functional
[13] = tested on: Meyerozyma guilliermondii; assay: Antifungal activity against Meyerozyma guilliermondii assessed as zone of inhibition; type: functional

COc1ccc(-c2nc(-c3ccccc3)c(-c3ccccc3)n2C(NN(c2ccccc2)c2ccccc2)c2ccccc2)c(OC)c1OC (configuration not stated)
inhibition zone (IZ) (Aspergillus niger [1]): 27 mm
inhibition zone (IZ) (Candida albicans [2]): 28 mm

CC[C@@H](CO)NCCN[C@@H](CC)CO [ETHAMBUTOL]
MIC [3]: 7.6 µM

O=C(O)c1cn(C2CC2)c2cc(N3CCNCC3)c(F)cc2c1=O [CIPROFLOXACIN]
MIC [4]: 4.7 µg/mL (≈ 14.2 µM)

NC(Cc1cc2ccccc2c2ccccc12)C(=O)N[C@H](C(=O)O)[C@H]1O[C@@H](n2ccc(=O)[nH]c2=O)[C@H](O)[C@@H]1O (some centres not stated)
IC50 (Candida albicans [5]): 0.31 µg/mL (≈ 0.58 µM)

Clc1ccc(Cn2c[n+](CCCCCC[n+]3cnn(Cc4ccc(Cl)cc4Cl)c3)cn2)c(Cl)c1.[Br-].[Br-]
MIC (Candida albicans [6]): 22.9 µg/mL

O=C(NN1C(=O)CSC1c1ccc([N+](=O)[O-])cc1)c1ccc(NCN2c3ccccc3Sc3ccccc32)cc1 (configuration not stated)
MIC [3]: 3.12 µg/mL

COc1cc(Nc2nc(OCc3cn(CCNc4cccc5cc(Cl)ccc45)nn3)nc(N(C)C)n2)cc(OC)c1
pIC50 (Plasmodium falciparum [7]): 5.94

O=C1Oc2cc(OCCN(N3CCOCC3)N3CCOCC3)ccc2C2c3ccccc3OC12 (configuration not stated)
MIC [3]: 3.12 µg/mL

COc1ccc(-c2nc(-c3ccccc3)c(-c3ccccc3)n2C(NN(c2ccccc2)c2cccc3ccccc23)c2ccccc2)c(OC)c1OC (configuration not stated)
inhibition zone (IZ) (Aspergillus niger [1]): 24 mm
inhibition zone (IZ) (Candida albicans [2]): 20 mm

CO[C@H]1/C=C/O[C@@]2(C)Oc3c(C)c(O)c4c(O)c(c(/C=N/N5CCN(C)CC5)c(O)c4c3C2=O)NC(=O)/C(C)=C\C=C\[C@H](C)[C@H](O)[C@@H](C)[C@@H](O)[C@@H](C)[C@H](OC(C)=O)[C@@H]1C [RIFAMPIN]
Activity [8]: 87%

O=C1Nc2cc3c(-c4ccccc4)c(-c4ccccc4)oc(=O)c3cc2C(c2ccc(Cl)cc2)N1 (configuration not stated)
MIC [3]: 50 µg/mL

CS(=O)(=O)c1ccc(-c2nc(S(C)(=O)=O)nn2-c2ccc(Cl)cc2)cc1
inhibition (INH) (Mus musculus): 77.2%

NC(=O)OC[C@H](O)[C@@H](O)[C@H](N)C(=O)N[C@H](C(=O)O)[C@H]1O[C@@H](n2cc(C(=O)O)c(=O)[nH]c2=O)[C@H](O)[C@@H]1O
MIC (Candida albicans [5]): 320 µg/mL (≈ 614 µM)

COc1cc(/C=C/c2ccc(O)cc2)cc(OC)c1 [PTEROSTILBENE]
pIC50 (MCF7): 4.19

O=C(/C=C/c1ccc(Cl)cc1Cl)c1ccc(OCC(O)(Cn2cncn2)c2ccc(F)cc2F)cc1 (configuration not stated)
MIC50 (Candida albicans [5]): 0.12 µg/mL (≈ 0.226 µM)

COc1cc(Nc2nc(OCc3cn(CCCNc4cccc5cc(Cl)ccc45)nn3)nc(N(C)C)n2)cc(OC)c1
pIC50 (Plasmodium falciparum [7]): 5.92

CCn1cc(C(=O)NN2C(=O)CSC2c2ccccc2OC)c(=O)c2cc(F)c(N3CCNCC3)cc21 (configuration not stated)
MIC (Pichia kudriavzevii): 1.59 µg/mL (≈ 3.03 µM)
MIC (Candida albicans [9]): 3.12 µg/mL (≈ 5.95 µM)
MIC (Aspergillus niger [10]): 12.5 µg/mL (≈ 23.8 µM)

O=C1Nc2cc3c(-c4ccccc4)c(-c4ccccc4)oc(=O)c3cc2C(c2ccc([N+](=O)[O-])cc2)N1 (configuration not stated)
MIC [3]: 40 µg/mL

Cc1cccc(C)c1Nc1nc(OCc2cn(CCCNc3cccc4cc(Cl)ccc34)nn2)nc(N(C)C)n1
pIC50 (Plasmodium falciparum [7]): 6.14

CC(=O)OC[C@H]1O[C@@H](OCc2cn(Cc3ccc4ccccc4n3)nn2)[C@H](OC(C)=O)[C@@H](OC(C)=O)[C@@H]1OC(C)=O
Activity [11]: 76.41%

CCN(CC)CCCC(C)Nc1ccnc2cc(Cl)ccc12 (configuration not stated) [CHLOROQUINE]
MIC (Plasmodium falciparum [12]): 0.125 µg/mL (≈ 0.391 µM)

c1c[nH]c(Cc2nc3ccccc3c3cc[nH]c23)c1
MIC [4]: 3.3 µg/mL (≈ 13.3 µM)

OC(Cn1cncn1)(Cn1cncn1)c1ccc(F)cc1F [FLUCONAZOLE]
MIC (Pichia kudriavzevii): 3.12 µg/mL (≈ 10.2 µM)
MIC (Candida albicans [6]): 52.2 µg/mL (≈ 171 µM)
MIC (Pichia norvegensis): 4 µg/mL (≈ 13.1 µM)
MIC (Candida albicans [9]): 6.25 µg/mL (≈ 20.4 µM)
MIC (Aspergillus niger [10]): 12.5 µg/mL (≈ 40.8 µM)
inhibition zone (IZ) [13]: 21 mm
